Among the targets are Histamine H3 receptor (Homo sapiens, UniProt Q9Y5N1); D(1A) dopamine receptor (Homo sapiens, UniProt P21728); D(3) dopamine receptor (Homo sapiens, UniProt P35462); Mu-type opioid receptor (Homo sapiens, UniProt P35372).
The target in experiment [1] is T1, 5-hydroxytryptamine receptor 1A (Homo sapiens, UniProt P08908).
T1 sequence (P08908 whole entry): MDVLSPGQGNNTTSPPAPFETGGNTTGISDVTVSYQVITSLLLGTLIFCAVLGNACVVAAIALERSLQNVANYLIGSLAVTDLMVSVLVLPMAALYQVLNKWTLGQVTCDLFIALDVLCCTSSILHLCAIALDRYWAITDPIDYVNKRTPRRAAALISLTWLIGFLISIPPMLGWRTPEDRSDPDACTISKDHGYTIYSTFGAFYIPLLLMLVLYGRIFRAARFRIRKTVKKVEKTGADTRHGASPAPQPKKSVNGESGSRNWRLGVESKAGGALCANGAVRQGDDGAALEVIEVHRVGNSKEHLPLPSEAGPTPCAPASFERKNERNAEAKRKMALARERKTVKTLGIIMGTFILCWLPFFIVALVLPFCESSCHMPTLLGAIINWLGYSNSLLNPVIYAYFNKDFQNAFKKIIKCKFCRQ

The target of experiment [2] is 5-hydroxytryptamine receptor 2B (Homo sapiens, UniProt P41595). The format is functional, cell-based.
Chain of 5-hydroxytryptamine receptor 2B (P41595 whole entry): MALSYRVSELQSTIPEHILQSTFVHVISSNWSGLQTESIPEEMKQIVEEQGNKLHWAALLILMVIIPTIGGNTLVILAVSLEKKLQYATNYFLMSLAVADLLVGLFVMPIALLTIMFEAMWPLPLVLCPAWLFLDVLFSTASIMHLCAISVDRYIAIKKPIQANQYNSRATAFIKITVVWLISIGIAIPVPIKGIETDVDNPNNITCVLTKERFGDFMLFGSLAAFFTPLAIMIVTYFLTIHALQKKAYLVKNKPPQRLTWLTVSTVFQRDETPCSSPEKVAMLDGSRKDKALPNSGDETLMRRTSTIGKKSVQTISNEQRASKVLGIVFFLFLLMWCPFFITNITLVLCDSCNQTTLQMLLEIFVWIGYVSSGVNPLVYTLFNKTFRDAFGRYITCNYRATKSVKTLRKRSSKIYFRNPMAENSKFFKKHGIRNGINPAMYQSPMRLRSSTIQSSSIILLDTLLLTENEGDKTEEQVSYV
Experiment [3] deals with Sodium-dependent dopamine transporter (Homo sapiens, UniProt Q01959).
Chain of Sodium-dependent dopamine transporter (Q01959 whole entry): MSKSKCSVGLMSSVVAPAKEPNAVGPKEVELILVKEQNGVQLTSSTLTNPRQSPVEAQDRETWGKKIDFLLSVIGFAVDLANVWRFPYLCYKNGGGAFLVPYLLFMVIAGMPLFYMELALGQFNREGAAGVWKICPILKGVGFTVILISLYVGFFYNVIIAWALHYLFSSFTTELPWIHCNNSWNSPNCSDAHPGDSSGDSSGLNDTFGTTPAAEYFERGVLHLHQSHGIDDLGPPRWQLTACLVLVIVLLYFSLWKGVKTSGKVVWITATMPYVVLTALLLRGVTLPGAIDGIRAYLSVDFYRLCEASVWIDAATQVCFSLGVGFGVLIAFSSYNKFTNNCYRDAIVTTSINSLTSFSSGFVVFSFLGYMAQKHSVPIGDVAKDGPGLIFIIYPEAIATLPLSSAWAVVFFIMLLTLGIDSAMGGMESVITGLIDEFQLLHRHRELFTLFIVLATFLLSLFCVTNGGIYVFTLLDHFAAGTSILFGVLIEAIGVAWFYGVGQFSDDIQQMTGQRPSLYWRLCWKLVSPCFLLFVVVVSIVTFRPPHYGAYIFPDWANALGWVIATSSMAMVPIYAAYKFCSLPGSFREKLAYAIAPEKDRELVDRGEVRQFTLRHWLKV
The target of a further experiment is Prothrombin (Homo sapiens, UniProt P00734). The format is functional.
Another experiment deals with T2, Progesterone receptor (Homo sapiens, UniProt P06401).
T2 sequence (P06401 whole entry): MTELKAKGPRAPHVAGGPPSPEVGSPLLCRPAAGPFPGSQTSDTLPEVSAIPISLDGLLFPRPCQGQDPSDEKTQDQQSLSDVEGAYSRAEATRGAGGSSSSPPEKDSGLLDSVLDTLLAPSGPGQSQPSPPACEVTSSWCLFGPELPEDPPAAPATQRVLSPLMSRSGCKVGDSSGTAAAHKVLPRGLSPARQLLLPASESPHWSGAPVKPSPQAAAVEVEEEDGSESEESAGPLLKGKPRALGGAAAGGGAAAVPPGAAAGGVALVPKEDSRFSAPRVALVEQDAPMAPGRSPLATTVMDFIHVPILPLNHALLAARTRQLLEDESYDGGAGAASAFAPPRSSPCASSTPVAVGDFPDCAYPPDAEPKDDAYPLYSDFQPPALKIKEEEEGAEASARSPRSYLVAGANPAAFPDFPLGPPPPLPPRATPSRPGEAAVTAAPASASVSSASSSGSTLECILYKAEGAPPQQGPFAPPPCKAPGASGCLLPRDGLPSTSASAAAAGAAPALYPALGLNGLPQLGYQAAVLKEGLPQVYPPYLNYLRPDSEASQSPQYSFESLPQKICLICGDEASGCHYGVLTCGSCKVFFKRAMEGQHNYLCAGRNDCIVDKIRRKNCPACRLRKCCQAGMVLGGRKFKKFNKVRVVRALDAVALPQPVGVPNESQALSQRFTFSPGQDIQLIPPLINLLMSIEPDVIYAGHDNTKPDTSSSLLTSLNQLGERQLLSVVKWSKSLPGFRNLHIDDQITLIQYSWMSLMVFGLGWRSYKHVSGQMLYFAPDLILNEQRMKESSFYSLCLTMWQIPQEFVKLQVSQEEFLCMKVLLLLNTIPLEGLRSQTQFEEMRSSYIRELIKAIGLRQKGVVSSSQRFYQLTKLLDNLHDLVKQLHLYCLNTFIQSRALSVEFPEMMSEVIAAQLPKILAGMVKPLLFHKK

Experiment [4] deals with T3, Alpha-2A adrenergic receptor (Homo sapiens, UniProt P08913).
T3 sequence (P08913 whole entry): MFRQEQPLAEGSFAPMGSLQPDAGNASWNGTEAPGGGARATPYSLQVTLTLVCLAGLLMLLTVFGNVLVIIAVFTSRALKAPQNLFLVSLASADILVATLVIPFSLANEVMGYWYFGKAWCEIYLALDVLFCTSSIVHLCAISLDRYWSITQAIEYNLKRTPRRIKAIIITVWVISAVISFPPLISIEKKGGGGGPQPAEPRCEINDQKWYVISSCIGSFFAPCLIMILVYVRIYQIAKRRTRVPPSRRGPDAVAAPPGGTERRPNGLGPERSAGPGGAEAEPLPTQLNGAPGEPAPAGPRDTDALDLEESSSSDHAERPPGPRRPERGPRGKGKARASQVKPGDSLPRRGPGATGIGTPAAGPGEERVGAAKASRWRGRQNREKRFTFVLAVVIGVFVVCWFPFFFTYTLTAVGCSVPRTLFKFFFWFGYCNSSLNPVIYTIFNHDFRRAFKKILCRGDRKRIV

The target of experiment [5] is 3',5'-cyclic-AMP phosphodiesterase 4A (Homo sapiens, UniProt P27815). The format is functional.
Chain of 3',5'-cyclic-AMP phosphodiesterase 4A (P27815 whole entry): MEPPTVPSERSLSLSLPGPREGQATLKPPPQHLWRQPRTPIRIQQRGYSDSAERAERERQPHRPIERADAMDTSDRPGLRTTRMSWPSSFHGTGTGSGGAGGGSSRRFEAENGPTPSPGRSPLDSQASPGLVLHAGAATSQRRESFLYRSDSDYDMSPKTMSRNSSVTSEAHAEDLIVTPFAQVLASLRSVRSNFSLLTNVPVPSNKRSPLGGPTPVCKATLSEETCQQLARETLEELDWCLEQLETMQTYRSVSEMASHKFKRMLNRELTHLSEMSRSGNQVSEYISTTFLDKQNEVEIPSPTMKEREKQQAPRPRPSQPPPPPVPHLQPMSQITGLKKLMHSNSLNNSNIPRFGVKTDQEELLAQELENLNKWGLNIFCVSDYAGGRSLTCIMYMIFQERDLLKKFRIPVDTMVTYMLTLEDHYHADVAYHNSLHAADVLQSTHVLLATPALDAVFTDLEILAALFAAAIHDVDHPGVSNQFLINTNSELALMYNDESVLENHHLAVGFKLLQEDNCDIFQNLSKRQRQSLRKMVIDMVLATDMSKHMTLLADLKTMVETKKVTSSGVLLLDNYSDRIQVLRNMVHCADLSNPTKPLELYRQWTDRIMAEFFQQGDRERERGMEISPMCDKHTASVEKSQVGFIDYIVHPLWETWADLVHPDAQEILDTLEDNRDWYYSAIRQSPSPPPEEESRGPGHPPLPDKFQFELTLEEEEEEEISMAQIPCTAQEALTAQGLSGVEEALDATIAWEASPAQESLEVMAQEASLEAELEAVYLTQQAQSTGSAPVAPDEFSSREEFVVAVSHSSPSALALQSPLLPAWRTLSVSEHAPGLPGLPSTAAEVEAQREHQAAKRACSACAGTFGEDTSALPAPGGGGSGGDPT
Experiment [6] deals with T4, Thromboxane A2 receptor (Homo sapiens, UniProt P21731).
T4 sequence (P21731 whole entry): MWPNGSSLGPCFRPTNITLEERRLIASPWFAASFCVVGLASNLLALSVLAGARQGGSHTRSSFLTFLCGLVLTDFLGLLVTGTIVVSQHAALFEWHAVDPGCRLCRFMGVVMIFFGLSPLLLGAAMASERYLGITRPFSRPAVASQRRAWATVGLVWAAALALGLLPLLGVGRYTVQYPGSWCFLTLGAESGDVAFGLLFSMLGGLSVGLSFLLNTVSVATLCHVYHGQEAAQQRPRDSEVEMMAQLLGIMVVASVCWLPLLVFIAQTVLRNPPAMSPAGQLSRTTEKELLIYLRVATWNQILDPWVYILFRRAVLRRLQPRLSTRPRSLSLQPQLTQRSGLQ
The format is functional, cell-based.

The target of another experiment is Acetylcholinesterase (Homo sapiens, UniProt P22303). The format is functional.
Chain of Acetylcholinesterase (P22303 whole entry): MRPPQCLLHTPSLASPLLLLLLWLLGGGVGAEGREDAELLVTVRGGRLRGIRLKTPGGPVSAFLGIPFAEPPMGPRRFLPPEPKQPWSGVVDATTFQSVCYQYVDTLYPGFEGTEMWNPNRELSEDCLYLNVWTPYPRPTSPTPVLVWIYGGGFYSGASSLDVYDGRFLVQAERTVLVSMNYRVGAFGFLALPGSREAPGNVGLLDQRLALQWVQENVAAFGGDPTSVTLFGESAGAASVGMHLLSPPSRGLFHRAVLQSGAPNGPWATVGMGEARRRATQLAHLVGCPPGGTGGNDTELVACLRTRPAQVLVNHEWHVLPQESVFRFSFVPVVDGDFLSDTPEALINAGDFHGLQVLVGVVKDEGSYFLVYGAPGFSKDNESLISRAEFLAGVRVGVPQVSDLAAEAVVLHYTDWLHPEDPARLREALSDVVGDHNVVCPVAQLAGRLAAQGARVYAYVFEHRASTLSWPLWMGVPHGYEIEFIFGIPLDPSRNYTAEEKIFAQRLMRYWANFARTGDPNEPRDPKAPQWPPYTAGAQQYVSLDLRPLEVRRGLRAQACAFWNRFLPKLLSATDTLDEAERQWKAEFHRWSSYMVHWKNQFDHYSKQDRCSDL
Experiment [7] concerns the target T4, Thromboxane A2 receptor. The experiment is classed as functional, cell-based. This is another data set of the same source.
Experiment [8] addresses Prostaglandin G/H synthase 1 (Homo sapiens, UniProt P23219). The experiment is classed as functional.
Experiment [9] has as its target Sodium-dependent noradrenaline transporter (Homo sapiens, UniProt P23975).
For experiment [10], the target named is Voltage-gated inwardly rectifying potassium channel KCNH2 (Homo sapiens, UniProt Q12809). The format is functional.

Some results are limits rather than exact numbers.
Further: assay procedure not described here.

Chain of D(1A) dopamine receptor (P21728 whole entry): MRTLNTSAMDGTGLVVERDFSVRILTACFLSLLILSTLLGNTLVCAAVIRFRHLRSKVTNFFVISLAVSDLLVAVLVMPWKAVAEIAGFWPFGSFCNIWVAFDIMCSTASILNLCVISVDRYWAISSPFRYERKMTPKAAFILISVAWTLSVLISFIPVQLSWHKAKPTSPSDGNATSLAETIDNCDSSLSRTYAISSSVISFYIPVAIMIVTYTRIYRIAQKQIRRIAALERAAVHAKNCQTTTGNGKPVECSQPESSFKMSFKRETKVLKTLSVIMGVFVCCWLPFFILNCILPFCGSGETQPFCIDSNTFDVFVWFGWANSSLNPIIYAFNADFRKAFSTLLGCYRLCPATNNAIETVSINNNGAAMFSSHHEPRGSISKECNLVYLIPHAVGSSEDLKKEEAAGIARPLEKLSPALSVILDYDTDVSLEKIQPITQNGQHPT
Chain of Mu-type opioid receptor (P35372 whole entry): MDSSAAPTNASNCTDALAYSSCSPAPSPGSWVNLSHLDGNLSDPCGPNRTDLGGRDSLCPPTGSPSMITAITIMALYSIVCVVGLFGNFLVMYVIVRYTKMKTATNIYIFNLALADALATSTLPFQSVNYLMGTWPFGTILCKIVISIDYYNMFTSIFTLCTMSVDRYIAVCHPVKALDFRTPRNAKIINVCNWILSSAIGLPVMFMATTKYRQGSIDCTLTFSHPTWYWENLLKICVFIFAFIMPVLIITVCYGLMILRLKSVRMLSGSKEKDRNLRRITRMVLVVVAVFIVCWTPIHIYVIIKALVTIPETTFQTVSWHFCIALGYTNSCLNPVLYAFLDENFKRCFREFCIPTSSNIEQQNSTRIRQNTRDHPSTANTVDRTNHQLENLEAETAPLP
Chain of D(3) dopamine receptor (P35462 whole entry): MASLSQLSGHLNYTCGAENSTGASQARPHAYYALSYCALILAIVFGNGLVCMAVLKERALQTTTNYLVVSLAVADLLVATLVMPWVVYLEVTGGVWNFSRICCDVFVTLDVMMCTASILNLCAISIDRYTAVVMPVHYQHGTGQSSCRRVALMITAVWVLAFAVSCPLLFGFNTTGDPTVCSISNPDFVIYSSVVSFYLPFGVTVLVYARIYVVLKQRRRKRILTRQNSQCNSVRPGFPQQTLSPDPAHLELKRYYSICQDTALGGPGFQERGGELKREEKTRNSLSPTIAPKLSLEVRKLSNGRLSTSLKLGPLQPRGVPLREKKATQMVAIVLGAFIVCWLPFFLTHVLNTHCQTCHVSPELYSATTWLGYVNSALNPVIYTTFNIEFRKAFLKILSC
Chain of Histamine H3 receptor (Q9Y5N1 whole entry): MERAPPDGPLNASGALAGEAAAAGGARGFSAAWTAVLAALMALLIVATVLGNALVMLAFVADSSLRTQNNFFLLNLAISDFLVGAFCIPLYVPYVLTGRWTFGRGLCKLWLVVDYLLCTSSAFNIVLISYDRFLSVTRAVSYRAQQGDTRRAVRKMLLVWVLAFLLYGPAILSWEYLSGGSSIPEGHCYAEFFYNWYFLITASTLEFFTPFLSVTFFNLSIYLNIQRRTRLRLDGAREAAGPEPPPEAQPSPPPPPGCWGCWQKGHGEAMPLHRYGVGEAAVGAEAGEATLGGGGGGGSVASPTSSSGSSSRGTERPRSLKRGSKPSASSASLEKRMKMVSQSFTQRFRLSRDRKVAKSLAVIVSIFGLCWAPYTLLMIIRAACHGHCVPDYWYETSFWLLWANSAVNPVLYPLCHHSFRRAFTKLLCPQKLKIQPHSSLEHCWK
Chain of Prostaglandin G/H synthase 1 (P23219 whole entry): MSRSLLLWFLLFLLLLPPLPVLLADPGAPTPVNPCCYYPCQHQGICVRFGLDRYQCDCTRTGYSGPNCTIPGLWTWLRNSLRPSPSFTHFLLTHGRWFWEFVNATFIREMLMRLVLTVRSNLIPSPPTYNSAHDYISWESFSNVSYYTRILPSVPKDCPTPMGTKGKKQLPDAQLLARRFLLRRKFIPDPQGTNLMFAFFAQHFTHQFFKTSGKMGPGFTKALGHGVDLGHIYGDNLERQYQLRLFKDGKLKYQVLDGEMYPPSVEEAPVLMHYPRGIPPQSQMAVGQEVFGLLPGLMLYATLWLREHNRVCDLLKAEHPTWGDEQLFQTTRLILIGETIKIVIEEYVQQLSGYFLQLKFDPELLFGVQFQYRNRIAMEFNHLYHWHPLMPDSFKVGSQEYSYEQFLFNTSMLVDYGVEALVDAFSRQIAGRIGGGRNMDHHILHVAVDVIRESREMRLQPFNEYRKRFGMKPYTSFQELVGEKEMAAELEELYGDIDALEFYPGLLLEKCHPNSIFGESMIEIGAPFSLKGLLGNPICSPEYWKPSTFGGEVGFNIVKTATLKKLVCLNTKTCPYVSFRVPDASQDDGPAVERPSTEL

The AC50 is the midpoint of the concentration-response curve, whichever way the signal moves. A high value points to activity only at high concentration. Consider `Cc1ccc(C(=O)c2ccc(CC(=O)O)n2C)cc1` [TOLMETIN], for which the AC50 (in experiment [1]; on Histamine H3 receptor; in [2]; on D(1A) dopamine receptor; in [3]; on Prothrombin) was > 30 µM throughout. For the same compound, the AC50 (on Progesterone receptor; in experiment [4]; in experiment [5]; on D(3) dopamine receptor; at Thromboxane A2 receptor [6]; at Acetylcholinesterase) was > 30 µM each time. Moreover, the AC50 on Thromboxane A2 receptor [7] is > 30 µM; at Mu-type opioid receptor it was > 30 µM; in [8] it was 0.081 µM; in experiment [9], > 30 µM; in experiment [10], > 30 µM.

Regarding `Cc1ccccc1C(=O)Nc1ccc(C(=O)N2CCCC(O)c3cc(Cl)ccc32)c(C)c1` (stereo not given) [TOLVAPTAN], the AC50 in experiment [1] was 11 µM; on Histamine H3 receptor, > 30 µM; in [2], > 30 µM; on D(1A) dopamine receptor, > 30 µM; in experiment [3], > 30 µM; at Prothrombin, > 30 µM. Besides, the concentration at half-maximal activity (AC50) (at Progesterone receptor; in experiment [4]; in experiment [5]; on D(3) dopamine receptor; at Thromboxane A2 receptor [6]; on Acetylcholinesterase) was > 30 µM in each case. Further, the AC50 on Thromboxane A2 receptor [7] was 7.42 µM; at Mu-type opioid receptor it was 6.71 µM; in [8], > 30 µM; in [9], > 30 µM; in experiment [10], > 30 µM.

Take `C=CC(=O)Nc1cccc(Oc2nc(Nc3ccc(N4CCN(C)CC4)cc3)nc3ccsc23)c1` [OLMUTINIB]: the AC50 in experiment [1] was 2.44 µM; on Histamine H3 receptor, 0.94 µM; in [2], > 30 µM; at D(1A) dopamine receptor, 3.81 µM; in experiment [3], 0.0559 µM; at Prothrombin, > 30 µM. The AC50 at Progesterone receptor is > 30 µM; in [4] it was 0.881 µM; in [5], 3.19 µM; on D(3) dopamine receptor it was 0.453 µM; on Thromboxane A2 receptor [6], > 30 µM; at Acetylcholinesterase it was > 30 µM. The AC50 is 4.35 µM at Thromboxane A2 receptor [7]; 5.5 µM at Mu-type opioid receptor; > 30 µM in [8]; 12.3 µM in experiment [9]; 0.54 µM in [10].

For `CCCCC(CC)CN1CN(CC(CC)CCCC)CC(C)(N)C1` (stereo not given) [HEXETIDINE], the AC50 was 3.44 µM in [1]; > 10 µM at Histamine H3 receptor; > 30 µM in [2]; > 30 µM at D(1A) dopamine receptor; 4.6 µM in experiment [3]; > 30 µM at Prothrombin. Moreover, the AC50 was > 30 µM at Progesterone receptor; 14.4 µM in [4]; > 30 µM in experiment [5]; 4.84 µM at D(3) dopamine receptor; > 30 µM at Thromboxane A2 receptor [6]; > 30 µM at Acetylcholinesterase. Also, the AC50 on Thromboxane A2 receptor [7] was > 30 µM; at Mu-type opioid receptor it was 4.86 µM; in experiment [8], > 30 µM; in experiment [9], 7.93 µM; in [10], 0.75 µM.

Regarding `CCNC(=O)/C=C(C)/C=C/C=C(C)/C=C/c1c(C)cc(OC)c(C)c1C` [MOTRETINIDE], the half-maximal activity concentration (AC50) in [1] was > 30 µM; on Histamine H3 receptor, > 30 µM; in experiment [2], > 30 µM; on D(1A) dopamine receptor, > 30 µM; in experiment [3], > 10 µM; at Prothrombin it was > 30 µM. Besides, the AC50 on Progesterone receptor is 0.932 µM; in experiment [4], > 30 µM; in [5] it was > 30 µM; on D(3) dopamine receptor it was > 30 µM; at Thromboxane A2 receptor [6], > 30 µM; at Acetylcholinesterase it was > 30 µM. Besides, the concentration at half-maximal activity (AC50) is > 30 µM at Thromboxane A2 receptor [7]; 28.4 µM at Mu-type opioid receptor; 6.95 µM in experiment [8]; 24.1 µM in experiment [9]; 5.7 µM in experiment [10].

(Values after ChEMBL document CHEMBL5291721, “A preclinical secondary pharmacology resource illuminates target-adverse drug reaction associations of marketed drugs” (Nat Commun, 2023).)
